ChEMBL document CHEMBL6177932 (J Med Chem, 2024)
Active and inactive are the calls of the source. No cut-off for these calls is given here.

Tests used:
[1] = molecular target: Histone deacetylase 9 (Homo sapiens) (UniProt Q9UKV0); experiment: Inhibition of human HDAC9 at 100 uM using Boc-Lys(trifluoroacetyl)-AMC as substrate by fluorogenic assay
[2] = Toxicity in 4T1 cells implanted BALB/c mouse assessed as body weight loss at 1.5 to 5 mg/kg, ip administered daily for 18 days; format: organism-based; settings: in vivo, 432 h, dose 1.5-5 mg/kg, time 18 day
[3] = molecular target: Vitamin D3 receptor (Mus musculus) (UniProt P48281); experiment: In vivo agonist activity at VDR in mouse B16-F10 cells implanted C57BL/6 mouse assessed as induction of Cyp24al gene in tumor at 5 mg/kg, ip administered 2 times at 24 hrs interval by RT-qPCR analysis; settings: time 48.0 hrs
[4] = molecular target: T1, Vitamin D3 receptor (Mus musculus) (UniProt P48281); experiment: Agonist activity at VDR in mouse 4TO7 cells assessed as induction of Cyp24a1 gene at 0.1 to 10 uM measured after 24 hrs by RT-qPCR analysis; format: cell-based; settings: filed as agonist, dose 0.1-10 µM
T1 sequence (whole entry): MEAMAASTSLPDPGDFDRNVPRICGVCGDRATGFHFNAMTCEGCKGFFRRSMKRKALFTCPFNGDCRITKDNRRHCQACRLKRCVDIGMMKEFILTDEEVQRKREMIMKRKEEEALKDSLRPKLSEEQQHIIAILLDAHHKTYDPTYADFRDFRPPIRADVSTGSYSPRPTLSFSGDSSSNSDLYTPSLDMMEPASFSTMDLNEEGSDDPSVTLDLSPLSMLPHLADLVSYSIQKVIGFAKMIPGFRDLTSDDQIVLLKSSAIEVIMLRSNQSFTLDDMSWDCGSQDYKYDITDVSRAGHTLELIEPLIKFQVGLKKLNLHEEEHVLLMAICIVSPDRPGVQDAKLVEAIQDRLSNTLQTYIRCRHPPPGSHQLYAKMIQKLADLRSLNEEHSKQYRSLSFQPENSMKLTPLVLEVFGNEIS

[5] = Toxicity in mouse B16-F10 cells implanted C57BL/6 mouse at 5 mg/kg, ip administered daily for 28 days; format: organism-based; settings: in vivo, time 28 day
Mus musculus [6] = experiment: Immunomodulatory activity in mouse 4T1 cells implanted BALB/c mouse assessed as reduction in total macrophage infiltration into tumors at 1.5 to 5 mg/kg, ip administered daily for 18 days by F4/80 staining based immunofluorescence microscopy; format: functional, organism-based; settings: dose 1.5-5 mg/kg, time 18.0 day
B16-F10 [7] = experiment: Inhibition of class 1 HDAC in mouse B16-F10 cells assessed as induction of H3K27 acetylation at 10 uM measured after 6 hrs by Western blot analysis; format: cell-based
4T1 = experiment: Inhibition of class 1 HDAC in mouse 4T1 cells assessed as induction of H3K27 acetylation at 10 uM measured after 6 hrs by Western blot analysis; format: cell-based
[8] = molecular target: Vitamin D3 receptor (Mus musculus) (UniProt P48281); experiment: In vivo agonist activity at VDR in mouse B16-F10 cells implanted C57BL/6 mouse assessed as induction of VDR gene in tumor at 5 mg/kg, ip administered 2 times at 24 hrs interval by RT-qPCR analysis; settings: time 48.0 hrs
[9] = Toxicity in mouse B16-F10 cells implanted C57BL/6 mouse assessed as effect on body weight at 5 mg/kg, ip administered daily for 28 days; format: organism-based; settings: in vivo, time 28 day
Mus musculus [10] = experiment: Immunomodulatory activity in mouse 4T1 cells implanted BALB/c mouse assessed as reduction in Ccl20 gene expression at 1.5 to 5 mg/kg, ip administered daily for 18 days by RT-qPCR analysis; format: functional, organism-based; settings: dose 1.5-5 mg/kg, time 18.0 day
[11] = molecular target: T1, Vitamin D3 receptor (Mus musculus); experiment: Agonist activity at VDR in mouse 4T1 cells assessed as induction of Cyp24a1 gene at 0.1 to 10 uM measured after 24 hrs by RT-qPCR analysis; format: cell-based; settings: filed as agonist, dose 0.1-10 µM
B16-F10 [12] = experiment: Cytotoxicity against mouse B16-F10 cells assessed as reduction in cell viability at 0.01 to 100 uM measured after 24 hrs by RealTime-glo cell viability assay; format: functional, cell-based; settings: dose 0.01-100 µM
[13] = molecular target: T1, Vitamin D3 receptor (Mus musculus); experiment: Agonist activity at VDR in mouse B16-F10 cells assessed as induction of Cyp24a1 gene at 1 to 10 uM measured after 24 hrs by RT-qPCR analysis; format: cell-based; settings: filed as agonist, dose 1-10 µM
[14] = molecular target: T2, Protein deacetylase HDAC6 (Mus musculus) (UniProt Q9Z2V5); experiment: Inhibition of HDAC6 in mouse B16-F10 cells assessed as induction of tubulin acetylation at 10 uM measured after 6 hrs by Western blot analysis; format: cell-based
T2 sequence (whole entry): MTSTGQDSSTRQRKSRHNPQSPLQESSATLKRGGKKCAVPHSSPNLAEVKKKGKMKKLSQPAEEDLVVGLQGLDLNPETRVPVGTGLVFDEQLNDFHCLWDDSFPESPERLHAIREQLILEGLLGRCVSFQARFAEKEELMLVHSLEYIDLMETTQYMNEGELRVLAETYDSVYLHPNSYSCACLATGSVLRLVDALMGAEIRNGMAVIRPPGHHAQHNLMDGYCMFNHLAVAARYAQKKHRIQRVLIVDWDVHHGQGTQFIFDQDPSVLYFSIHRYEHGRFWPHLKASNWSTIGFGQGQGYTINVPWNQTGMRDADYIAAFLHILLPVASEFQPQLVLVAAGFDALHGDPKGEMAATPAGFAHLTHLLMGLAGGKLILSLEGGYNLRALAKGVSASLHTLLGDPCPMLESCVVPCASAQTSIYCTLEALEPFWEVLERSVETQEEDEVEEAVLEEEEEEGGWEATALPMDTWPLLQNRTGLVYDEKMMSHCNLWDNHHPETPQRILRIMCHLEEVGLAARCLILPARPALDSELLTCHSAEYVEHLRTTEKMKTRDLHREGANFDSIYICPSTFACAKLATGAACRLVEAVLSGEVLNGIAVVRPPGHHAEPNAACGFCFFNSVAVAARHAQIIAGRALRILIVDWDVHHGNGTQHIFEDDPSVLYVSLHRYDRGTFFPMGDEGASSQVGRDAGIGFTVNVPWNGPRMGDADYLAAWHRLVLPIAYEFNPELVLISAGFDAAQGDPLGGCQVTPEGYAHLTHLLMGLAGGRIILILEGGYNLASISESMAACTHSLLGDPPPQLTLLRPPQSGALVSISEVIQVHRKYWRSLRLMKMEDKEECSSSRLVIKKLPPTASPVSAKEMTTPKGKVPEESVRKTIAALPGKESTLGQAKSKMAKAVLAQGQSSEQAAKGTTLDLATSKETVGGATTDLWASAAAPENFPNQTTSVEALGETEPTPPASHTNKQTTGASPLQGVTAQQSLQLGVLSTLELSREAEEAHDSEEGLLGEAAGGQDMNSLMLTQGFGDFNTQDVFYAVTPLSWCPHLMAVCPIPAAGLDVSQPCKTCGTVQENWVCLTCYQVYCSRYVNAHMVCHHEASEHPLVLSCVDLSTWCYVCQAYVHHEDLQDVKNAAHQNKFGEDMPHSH

Histone deacetylase 9 (Homo sapiens), sequence (Q9UKV0 whole entry): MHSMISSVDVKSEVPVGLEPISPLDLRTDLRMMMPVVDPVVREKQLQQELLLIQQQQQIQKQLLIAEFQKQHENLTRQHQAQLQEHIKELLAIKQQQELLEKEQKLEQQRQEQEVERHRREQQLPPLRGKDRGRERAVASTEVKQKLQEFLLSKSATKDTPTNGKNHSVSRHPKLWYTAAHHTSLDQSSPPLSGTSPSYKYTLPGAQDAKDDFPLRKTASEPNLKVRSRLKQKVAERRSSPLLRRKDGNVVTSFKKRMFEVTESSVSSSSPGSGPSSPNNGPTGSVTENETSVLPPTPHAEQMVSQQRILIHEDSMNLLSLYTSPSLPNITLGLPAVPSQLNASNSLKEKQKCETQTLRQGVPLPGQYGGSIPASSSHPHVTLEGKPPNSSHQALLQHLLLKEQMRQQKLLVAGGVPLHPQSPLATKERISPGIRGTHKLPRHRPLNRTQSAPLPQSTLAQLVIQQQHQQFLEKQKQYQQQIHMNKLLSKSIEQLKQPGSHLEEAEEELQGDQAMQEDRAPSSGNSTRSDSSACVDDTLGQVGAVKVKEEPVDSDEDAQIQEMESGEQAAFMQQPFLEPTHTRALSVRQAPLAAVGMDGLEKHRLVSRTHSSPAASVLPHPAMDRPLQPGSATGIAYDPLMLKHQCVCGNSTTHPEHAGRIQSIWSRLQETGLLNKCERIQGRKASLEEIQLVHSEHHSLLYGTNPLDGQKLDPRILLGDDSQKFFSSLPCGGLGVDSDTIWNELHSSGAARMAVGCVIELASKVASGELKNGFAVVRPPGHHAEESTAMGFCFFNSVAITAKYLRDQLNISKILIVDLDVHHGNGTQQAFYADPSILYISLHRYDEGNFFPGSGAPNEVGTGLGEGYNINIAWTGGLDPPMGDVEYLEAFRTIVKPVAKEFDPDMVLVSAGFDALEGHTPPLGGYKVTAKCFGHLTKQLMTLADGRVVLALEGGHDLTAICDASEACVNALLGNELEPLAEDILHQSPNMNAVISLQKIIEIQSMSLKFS

CCC(CC)(c1ccc(C(=O)NCCCCC(=O)NO)cc1)c1ccc(OCC(O)C(C)(C)C)c(C)n1 (stereo not given)
inhibition [1]: Not active; No Or Very Limited Inhibition Was Observed
Activity [2]: Non-toxic
Activity [3]: Active
Activity [4]: Active
Activity [5]: Non-toxic
Activity (Mus musculus [6]): Active; Significantly Reduced Macrophage Infiltration Into Tumor
inhibition (B16-F10 [7]): Active; Acetylation Was Comparable Or Greater Than Saha
inhibition (4T1): Active
Activity [8]: Active
Activity [9]: Non-toxic
Activity (Mus musculus [10]): Active
Activity [11]: Active
Activity (B16-F10 [12]): Active
Activity [13]: Active
inhibition [14]: Active; Acetylation Was Comparable Or Greater Than Saha
